Experiments:
Format in all cases: in vivo
[1] = tested on: wheat (Triticum aestivum); experiment: Test A postemergence, visual plant response rating; conditions: 500 g ai/ha, postemergence; 0 is no effect, 100 is complete control
Procedure, shortened: (§1)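 Compared with untreated controls, treated plants received a visual injury score on a 0–100 scale around 10 days after application. The compound, in a non-phytotoxic solvent with surfactant, was given as a preemergence soil spray or postemergence at the one- to two-leaf stage.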

[2] = tested on: ragweed (common ragweed, Ambrosia elatior); experiment: Test A postemergence, visual plant response rating; conditions: 500 g ai/ha, postemergence; 0 is no effect, 100 is complete control
Procedure, shortened: as §1

[3] = tested on: foxtail, green (green foxtail, Setaria viridis); experiment: Test A postemergence, visual plant response rating; conditions: 500 g ai/ha, postemergence; 0 is no effect, 100 is complete control
Procedure, shortened: as §1

[4] = tested on: kochia (Kochia scoparia); experiment: Test A postemergence, visual plant response rating; conditions: 500 g ai/ha, postemergence; 0 is no effect, 100 is complete control
Procedure, shortened: as §1

[5] = tested on: pigweed (Amaranthus retroflexus); experiment: Test A postemergence, visual plant response rating; conditions: 500 g ai/ha, postemergence; 0 is no effect, 100 is complete control
Procedure, shortened: as §1

[6] = tested on: galium (catchweed bedstraw, Galium aparine); experiment: Test A postemergence, visual plant response rating; conditions: 500 g ai/ha, postemergence; 0 is no effect, 100 is complete control
Procedure, shortened: as §1

[7] = tested on: blackgrass (Alopecurus myosuroides); experiment: Test A postemergence, visual plant response rating; conditions: 500 g ai/ha, postemergence; 0 is no effect, 100 is complete control
Procedure, shortened: as §1

[8] = tested on: Italian ryegrass (Lolium multiflorum); experiment: Test A postemergence, visual plant response rating; conditions: 500 g ai/ha, postemergence; 0 is no effect, 100 is complete control
Procedure, shortened: as §1

[9] = tested on: barnyardgrass (Echinochloa crus-galli); experiment: Test A postemergence, visual plant response rating; conditions: 500 g ai/ha, postemergence; 0 is no effect, 100 is complete control
Procedure, shortened: as §1

[10] = tested on: corn (Zea mays); experiment: Test A postemergence, visual plant response rating; conditions: 500 g ai/ha, postemergence; 0 is no effect, 100 is complete control
Procedure, shortened: as §1

[11] = tested on: ragweed (common ragweed, Ambrosia elatior); experiment: Test A preemergence, visual plant response rating; conditions: 500 g ai/ha Preemergence; approx. 10 days
Procedure, shortened: as §1

[12] = tested on: foxtail, green (green foxtail, Setaria viridis); experiment: Test A preemergence, visual plant response rating; conditions: 500 g ai/ha Preemergence; approx. 10 days
Procedure, shortened: as §1

[13] = tested on: kochia (Kochia scoparia); experiment: Test A preemergence, visual plant response rating; conditions: 500 g ai/ha Preemergence; approx. 10 days
Procedure, shortened: as §1

[14] = tested on: pigweed (Amaranthus retroflexus); experiment: Test A preemergence, visual plant response rating; conditions: 500 g ai/ha Preemergence; approx. 10 days
Procedure, shortened: as §1

[15] = tested on: Italian ryegrass (Lolium multiflorum); experiment: Test A preemergence, visual plant response rating; conditions: 500 g ai/ha Preemergence; approx. 10 days
Procedure, shortened: as §1

[16] = tested on: barnyardgrass (Echinochloa crus-galli); experiment: Test A preemergence, visual plant response rating; conditions: 500 g ai/ha Preemergence; approx. 10 days
Procedure, shortened: as §1

[17] = tested on: rice (Oryza sativa); experiment: Test D flooded paddy test, visual plant response rating; conditions: 250 g ai/ha, scale 0 to 100 (0 no effect, 100 complete control), 13 to 15 d
Procedure, shortened: (§2)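 Visual injury scores, 0 (no effect) to 100 (complete control), were assigned after 13 to 15 d in the greenhouse by comparison with controls. Test compounds had been added to paddy water covering soil by 3 cm at the 2-leaf stage.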

[18] = tested on: barnyardgrass (Echinochloa crus-galli); experiment: as above; conditions: 250 g ai/ha, scale 0 to 100 (0 no effect, 100 complete control), 13 to 15 d
Procedure, shortened: as §2

[19] = tested on: sedge umbrella (small-flower umbrella sedge, Cyperus difformis); experiment: as above; conditions: 250 g ai/ha, scale 0 to 100 (0 no effect, 100 complete control), 13 to 15 d
Procedure, shortened: as §2

[20] = tested on: duck salad (Heteranthera limosa); experiment: as above; conditions: 250 g ai/ha, scale 0 to 100 (0 no effect, 100 complete control), 13 to 15 d
Procedure, shortened: as §2

[21] = tested on: wheat (Triticum aestivum); experiment: Test C postemergence, visual plant response rating
Procedure, shortened: (§3)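 Visual injury on a 0 (no effect) to 100 (complete control) scale versus untreated controls, scored approximately 10 d after treatment under greenhouse conditions. Treatments used surfactant-containing non-phytotoxic solvent formulations, sprayed onto loam–sand soil preemergence or onto one- to two-leaf plants 2–10 cm tall postemergence.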

[22] = tested on: Italian ryegrass (Lolium mutiflorum); experiment: Test C postemergence, visual plant response rating
Procedure, shortened: as §3

[23] = tested on: kochia (Bassia scoparia); experiment: Test C postemergence, visual plant response rating
Procedure, shortened: as §3

[24] = tested on: pigweed (Amaranthus retroflexus); experiment: Test C postemergence, visual plant response rating
Procedure, shortened: as §3

[25] = tested on: foxtail, giant (giant foxtail, Setaria faberi); experiment: Test C postemergence, visual plant response rating
Procedure, shortened: as §3

[26] = tested on: galium (catchweed bedstraw, Galium aparine); experiment: Test C postemergence, visual plant response rating
Procedure, shortened: as §3

[27] = tested on: blackgrass (Alopecurus myosuroides); experiment: Test C postemergence, visual plant response rating
Procedure, shortened: as §3

[28] = tested on: ragweed (common ragweed, Ambrosia artemisiifolia); experiment: Test C postemergence, visual plant response rating
Procedure, shortened: as §3

[29] = tested on: barnyardgrass (Echinochloa crus-galli); experiment: Test C postemergence, visual plant response rating
Procedure, shortened: as §3

[30] = tested on: corn (Zea mays); experiment: Test C postemergence, visual plant response rating
Procedure, shortened: as §3

[31] = tested on: Italian ryegrass (Lolium mutiflorum); experiment: Test C preemergence, visual plant response rating
Procedure, shortened: as §3

[32] = tested on: kochia (Bassia scoparia); experiment: Test C preemergence, visual plant response rating
Procedure, shortened: as §3

[33] = tested on: pigweed (Amaranthus retroflexus); experiment: Test C preemergence, visual plant response rating
Procedure, shortened: as §3

[34] = tested on: foxtail, giant (giant foxtail, Setaria faberi); experiment: Test C preemergence, visual plant response rating
Procedure, shortened: as §3

[35] = tested on: ragweed (common ragweed, Ambrosia artemisiifolia); experiment: Test C preemergence, visual plant response rating
Procedure, shortened: as §3

[36] = tested on: barnyardgrass (Echinochloa crus-galli); experiment: Test C preemergence, visual plant response rating
Procedure, shortened: as §3

[37] = Test C, postemergence, 125 g ai/ha
[38] = Test C, 31 g ai/ha, 0 is no effect, 100 is complete control

## CO/N=C(\c1cccc(C)c1)c1c(O)c(C2CC2)nn(C)c1=O [Compound 27]
[1]
  Wheat plant response rating (0 to 100 scale): 20
[2]
  Ragweed plant response rating (0 to 100 scale): 40
[3]
  Foxtail, Green plant response rating (0 to 100 scale): 0
[4]
  Kochia plant response rating (0 to 100 scale): 0
[5]
  Pigweed plant response rating (0 to 100 scale): 30
[6]
  Galium plant response rating (0 to 100 scale): 80
[7]
  Blackgrass plant response rating (0 to 100 scale): 10
[8]
  Ryegrass, Italian plant response rating (0 to 100 scale): 20
[9]
  Barnyardgrass plant response rating (0 to 100 scale): 0
[10]
  Corn plant response rating (0 to 100 scale): 0
[11]
  Ragweed plant response rating (0 to 100 scale): 10
[12]
  Foxtail, Green plant response rating (0 to 100 scale): 0
[13]
  Kochia plant response rating (0 to 100 scale): 0
[14]
  Pigweed plant response rating (0 to 100 scale): 0
[15]
  Ryegrass, Italian plant response rating (0 to 100 scale): 10
[16]
  Barnyardgrass plant response rating (0 to 100 scale): 10

## CO/N=C(/c1cc(F)cc(F)c1C)c1c(O)c(C)nn(C)c1=O [Compound 305]
[17]
  Plant response rating, Rice (Flood): 0
[18]
  Plant response rating, Barnyardgrass (Flood): 0
[19]
  Plant response rating, Sedge, Umbrella (Flood): 0
[20]
  Plant response rating, Ducksalad (Flood): 0
[21]; Postemergence, 31 g ai/ha
  Wheat plant response rating (0 to 100 scale): 0
[21]; [37]
  Wheat plant response rating (0 to 100 scale): 0
[22]; Postemergence, 31 g ai/ha
  Ryegrass, Italian plant response rating (0 to 100 scale): 10
[22]; [37]
  Ryegrass, Italian plant response rating (0 to 100 scale): 80
[23]; Postemergence, 31 g ai/ha
  Kochia plant response rating (0 to 100 scale): 50
[23]; [37]
  Kochia plant response rating (0 to 100 scale): 70
[24]; Postemergence, 31 g ai/ha
  Pigweed plant response rating (0 to 100 scale): 60
[24]; [37]
  Pigweed plant response rating (0 to 100 scale): 90
[25]; Postemergence, 31 g ai/ha
  Foxtail, Giant plant response rating (0 to 100 scale): 30
[25]; [37]
  Foxtail, Giant plant response rating (0 to 100 scale): 50
[26]; Postemergence, 31 g ai/ha
  Galium plant response rating (0 to 100 scale): 70
[26]; [37]
  Galium plant response rating (0 to 100 scale): 70
[27]; Postemergence, 31 g ai/ha
  Blackgrass plant response rating (0 to 100 scale): 10
[27]; [37]
  Blackgrass plant response rating (0 to 100 scale): 20
[28]; Postemergence, 31 g ai/ha
  Ragweed plant response rating (0 to 100 scale): 30
[28]; [37]
  Ragweed plant response rating (0 to 100 scale): 70
[29]; Postemergence, 31 g ai/ha
  Barnyardgrass plant response rating (0 to 100 scale): 20
[29]; [37]
  Barnyardgrass plant response rating (0 to 100 scale): 30
[30]; Postemergence, 31 g ai/ha
  Corn plant response rating (0 to 100 scale): 0
[30]; [37]
  Corn plant response rating (0 to 100 scale): 0
[31]; 125 g ai/ha
  Ryegrass, Italian plant response rating (0 to 100 scale): 30
[31]; [38]
  Ryegrass, Italian plant response rating (0 to 100 scale): 0
[32]; 125 g ai/ha
  Kochia plant response rating (0 to 100 scale): 30
[32]; [38]
  Kochia plant response rating (0 to 100 scale): 10
[33]; 125 g ai/ha
  Pigweed plant response rating (0 to 100 scale): 70
[33]; [38]
  Pigweed plant response rating (0 to 100 scale): 30
[34]; 125 g ai/ha
  Foxtail, Giant plant response rating (0 to 100 scale): 30
[34]; [38]
  Foxtail, Giant plant response rating (0 to 100 scale): 10
[35]; 125 g ai/ha
  Ragweed plant response rating (0 to 100 scale): 20
[35]; [38]
  Ragweed plant response rating (0 to 100 scale): 20
[36]; 125 g ai/ha
  Barnyardgrass plant response rating (0 to 100 scale): 20
[36]; [38]
  Barnyardgrass plant response rating (0 to 100 scale): 10

From patent US20210045385A1, “PYRIDAZINONE-SUBSTITUTED KETOXIMES AS HERBICIDES” (FMC Corporation, priority 2018, published 2021)
